Test results reported in US8093234B2, “Method of increasing thymic output in HIV-negative patients by treatment with antiretroviral agents” (Mayo Foundation For Medical Education and Research, priority 2005, dated 2012).
Values joined by “and” are separate entries in the source; they are usually repeats but may differ in a detail not shown here. Equal values may be shown once. “Also recorded” adds a separate entry of the source.

Key:
[1] = test system: thymic derived naïve T-cell numbers in the peripheral blood; experiment: TREC analysis (sjTREC/CCR5 real-time PCR) of peripheral blood in HIV-negative volunteers on nelfinavir mono-therapy; assay type: in vivo, human
Procedure: (§1) Following approval by the Mayo Institutional Review Board, peripheral blood was sampled from 46 healthy blood donors older than 18 years of age for baseline TREC analysis. For the separate nelfinavir trial, 15 HIV-negative individuals with no active illness older than 18 years of age were given nelfinavir, 1250 mg orally, twice a day for 21 days. Blood for TREC analysis was obtained before therapy and on days 3, 5, 7, 14, and 21 after starting therapy. At each blood draw, side-effects were monitored and recorded from each subject. Severity of diarrhea was graded as: Grade 0—None; Grade 1—increase of 4 stools/day over pretreatment; Grade 2—increase of 4-6 stools/day, or nocturnal stools; Grade 3—increase of 7 stools/day or incontinence, or dehydration episode requiring parenteral support; Grade 4—episode of hemodynamic collapse requiring intensive care.
TREC Analysis: DNA was isolated from peripheral blood mononuclear cells (PBMC) using an QIAamp Blood Mini DNA Kit (Qiagen) and assessed for signal joint (sj) TREC content relative to genomic CCR5 copies by real-time PCR in a spectroflourometric thermal cycler (ABI PRISM 7700 or 7900, PE Applied Biosystems). SjTREC reactions contained 12.5 pmol primers (forward […] [SEQ ID NO:1]), reverse […] [SEQ ID NO:2]) 3 pmoles TAQMAN probe (FAM-[…]-TAMRA [SEQ ID NO:3]), 1× TAQMAN Universal PCR Master Mix (PE Applied Biosystems), and 50 to 400 ng of template DNA in a total volume of 25 μl. CCR5 reactions contained 12.5 pmol primers (forward […] [SEQ ID NO:4], and reverse […] [SEQ ID NO:5]), 3 pmoles TAQMAN probe (FAM-[…]-TAMRA [SEQ ID NO:6]),1× TAQMAN Universal PCR Master Mix, and 50-400 ng of template of genomic DNA in a total volume of 25 μl. Thermal cycling conditions consisted of a 2-minute incubation at 50° C. and an initial denaturation/activation step at 95° C. for 10 minutes, followed by 40 cycles of 95° C. for 15 seconds and 60° C. for 1 minute in a microplate format. For each plate of reactions, standard curves were generated with 1-100,000 copies of human sjTREC plasmid (provided by Dr. D. Douek, NIH) and human CCR5 plasmid (cloned by RT-PCR into pCI) in order to calculate copies of TREC versus CCR5.
Statistical analysis: Experiments from every figure were performed in duplicate and repeated at least twice. All measurements are presented as means and standard deviations with statistical comparisons made between baseline and day 21 TREC/CCR5 measurements using the Student's t test for paired observations. For FIG. 2, change in baseline to day 21 TREC/CCR5 levels were stratified according to subjects age with 2 subjects <40, 2 subjects 40-65, and 11 subjects >65 years old.

[2] = Side-effect monitoring in the nelfinavir trial in HIV-negative individuals; assay type: in vivo, human
Procedure: as §1

Kaposi's sarcoma = conditions: mice implanted with Kaposi's sarcoma; cited from earlier work
[3] = test system: adult T-cell leukemia cells; conditions: NOD/SCID mice implanted with adult T-cell leukemia cells; cited from earlier work

Row | SMILES | volunteers who did not increase TREC numbers following 21 days ([1]; 15 subjects, 21 days) | volunteers who responded with increases in TREC numbers from baseline to day 21 ([1]; 15 subjects, 21 days) | effect on TREC levels / TREC positive naïve T-cell number ([1]; HIV-negative adults, mono-therapy for 21 days) | median increase in TRECs from baseline to day 21 in responders ([1]; eight responding volunteers, p<0.02) [copies TREC/CCR5] | change between baseline and day 21 TREC/CCR5 levels ([1]; entire cohort analyzed) | Day 21/0 TREC ([1]; individual subjects 1-15, nelfinavir 1250 mg orally twice a day for 21 days) | patients in whom TREC copies/copies CCR5 increased ([1]; of 15 subjects, p<0.02) [patients] | patients in whom TREC copies/copies CCR5 did not change ([1]; of 15 subjects, p=NS) [patients] | change in TREC levels between baseline (day 0) and days 3, 5, 7 or 14 ([1]; paired analysis) | average increase in TREC levels ([1]; subjects 40-65 years) [TREC/CCR5 copies] | average change in TREC levels ([1]; subjects greater than 65 years) [TREC/CCR5 copies] | average increase in TREC levels ([1]; subjects less than 40 years) [TREC/CCR5 copies] | clinical tolerability ([2]; 1250 mg orally twice a day for 21 days) | subjects who completed the 21 days of therapy ([2]; 15 subjects) | subjects who experienced Grade 1 or 2 diarrhea ([2]; six of 15 subjects) [%] | tumor response (Kaposi's sarcoma) | tumor growth [3]
1 | Cc1c(O)cccc1C(=O)N[C@@H](CSc1ccccc1)[C@H](O)CN1C[C@H]2CCCC[C@H]2C[C@H]1C(=O)NC(C)(C)C [nelfinavir] | 47 % of total | 53 % of total | induces an increase in TREC levels in a subset of healthy adults; also recorded: increases TREC positive naïve T-cell number | 1.2 | no change | 0.74 and 1.18 and 0.24 and 1.25 and 1.01 and 0.72 and 1.0 and 1.36 and 1.06 and 2.32 and 1.88 and 0.59 and 0.29 and 0.38 and 0.55 | 8 | 7 | No significant change | 0.80 | 0.89 | 1.2 | clinically well tolerated | all but one subject | 40 | – | –
2 | CC(C)c1nc(CN(C)C(=O)N[C@H](C(=O)N[C@@H](Cc2ccccc2)C[C@H](O)[C@H](Cc2ccccc2)NC(=O)OCc2cncs2)C(C)C)cs1 [Ritonavir] | – | – | – | – | – | – | – | – | – | – | – | – | – | – | – | significant tumor regression | reduced tumor growth
